This passage reports IC50 results from patent publication US20160031839A1, “ARGININE […] INHIBITORS AND USES THEREOF” (EPIZYME, INC., priority 2013, published 2016).

Where two headings read alike, the source gives them in different places. Where only a bound is given, the exact number is not on record here.

One experiment concerns the target T1, PRMT6 (Homo sapiens, UniProt Q96LA8).
T1 construct: Expressed full-length human Flag- and His-tagged PRMT6 protein was purified from cell paste; made in house; host or cells: HEK 293F cells (BacMam baculovirus)
Nature of the experiment: PRMT6 Biochemical Assay. The source says: Peptide representative of human histone H4 residues 36-50 was synthesized with an N-terminal linker-affinity tag motif and a C-terminal amide cap by 21st Century Biochemicals. The peptide was purified by high-performance liquid chromatography (HPLC) to greater than 95% purity and confirmed by liquid chromatography mass spectrometry (LC-MS). The sequence was Biot-Ahx-[…]-amide and contained a monomethylated lysine at position 44 (SEQ ID NO.:5).
Full-length human PRMT6 (NM_018137.2) transcript clone was amplified from an HEK 293 cDNA library, incorporating a flanking 5′ sequence encoding a FLAG tag ([…]) (SEQ ID NO.:6) fused directly to Ser 2 of PRMT6 and a 3′ sequence encoding a hexa His sequence (HHHHHH) (SEQ ID NO.:17) fused directly to Asp 375. The amplified gene was subcloned into pFastBacMam (Viva Biotech).
Column was washed with 20 mM imidazole in the same buffer and Flag-PRMT6-His was eluted with 150 mM imidazole. Pooled fractions were dialysed against buffer Ni-A and further purified by anti-flag M2 affinity chromatography. Flag-PRMT6-His was eluted with 200 ug/ml FLAG peptide in the same buffer. Pooled fractions were dialysed in 20 mM Tris, 150 mM NaCl, 10% glycerol and 5 mM (3-mercaptoethanol, pH 7.8. The purity of recovered protein was 95%.
General Procedure for PRMT6 Enzyme Assays on Peptide Substrates.
The assays were all performed in a buffer consisting of 20 mM Bicine (pH=7.6), 1 mM TCEP, 0.005% BSG, and 0.002% Tween 20, prepared on the day of use. Compounds in 100% DMSO (1 ul) were spotted into a polypropylene 384-well V-bottom plates (Greiner) using a Platemate Plus outfitted with a 384-channel head (Thermo Scientific). DMSO (1 ul) was added to Columns 11, 12, 23, 24, rows A-H for the maximum signal control and 1 ul of SAH, a known product and inhibitor of PRMT6, was added to columns 11, 12, 23, 24, rows I-P for the minimum signal control. A cocktail (40 ul) containing the PRMT6 enzyme was added by Multidrop Combi (Thermo-Fisher). The compounds were allowed to incubate with PRMT6 for 30 min at room temperature, then a cocktail (10 ul) containing SAM and peptide was added to initiate the reaction (final volume=51 ul). The final concentrations of the components were as follows: PRMT6 was 1 nM, ^3H-SAM was 200 nM, non-radiolabeled SAM was 250 nM, peptide was 75 nM, SAH in the minimum signal control wells was 1 mM, and the DMSO concentration was 2%. The assays were stopped by the addition of non-radiolabeled SAM (10 ul) to a final concentration of 400 uM, which dilutes the ^3H-SAM to a level where its incorporation into the peptide substrate is no longer detectable. 50 ul of the reaction in the 384-well polypropylene plate was then transferred to a 384-well Flashplate and the biotinylated peptides were allowed to bind to the streptavidin surface for at least 1 hour before being washed once with 0.1% Tween20 in a Biotek ELx405 plate washer. The plates were then read in a PerkinElmer TopCount plate reader to measure the quantity of ^3H-labeled peptide bound to the Flashplate surface, measured as disintegrations per minute (dpm) or alternatively, referred to as counts per minute (cpm).
(§1) Where dpm=disintegrations per minute, cmpd=signal in assay well, and min and max are the respective minimum and maximum signal controls.
(§2) Where top and bottom are the normally allowed to float, but may be fixed at 100 or 0 respectively in a 3-parameter fit. The Hill Coefficient normally allowed to float but may also be fixed at 1 in a 3-parameter fit. Y is the % inhibition and X is the compound concentration.

The target of a further experiment is T2, PRMT8 (Homo sapiens, UniProt Q9NR22).
T2 construct: Full-length human PRMT8 (NM_019854.4) isoform 1 transcript clone; made in house; host or cells: E. coli BL21(DE3) Gold
T2 sequence (Q9NR22 whole entry, canonical isoform): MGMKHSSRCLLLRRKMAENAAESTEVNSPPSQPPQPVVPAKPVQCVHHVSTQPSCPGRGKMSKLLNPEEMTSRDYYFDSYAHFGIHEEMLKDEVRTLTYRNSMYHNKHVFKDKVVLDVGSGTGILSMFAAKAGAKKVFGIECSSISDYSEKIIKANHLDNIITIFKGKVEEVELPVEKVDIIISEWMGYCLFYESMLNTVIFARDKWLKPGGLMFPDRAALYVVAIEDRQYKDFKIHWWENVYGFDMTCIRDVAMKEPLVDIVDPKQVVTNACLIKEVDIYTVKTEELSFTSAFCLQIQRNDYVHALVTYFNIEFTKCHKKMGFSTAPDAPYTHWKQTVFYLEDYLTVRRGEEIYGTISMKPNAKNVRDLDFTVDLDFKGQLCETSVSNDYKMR
Kind of experiment: PRMT8 Biochemical Assay.
Excerpt: Peptide representative of human histone H4 residues 31-45 was synthesized with an N-terminal linker-affinity tag motif and a C-terminal amide cap by 21st Century Biochemicals. The peptide was purified by high-performance liquid chromatography (HPLC) to greater than 95% purity and confirmed by liquid chromatography mass spectrometry (LC-MS). The sequence was Biot-Ahx-[…]-amide (SEQ ID NO.:8).
The resulting construct encodes an N-terminal GST tag and a thrombin cleavage sequence
The column was washed with 50 mM phosphate buffer, 100 mM NaCl, 5% glycerol, 5 mM […], pH 7.8 and PRMT8 was eluted by 100 mM phosphate in the same buffer. Protein was concentrated and buffer was exchanged to 50 mM Tris, 300 mM NaCl, 10% glycerol, 5 mM 3-mercaptoethanol, pH 7.8 by ultrafiltration. The purity of recovered protein was 89%.
General Procedure for PRMT8 Enzyme Assays on Peptide Substrates.
The assays were all performed in a buffer consisting of 20 mM Bicine (pH=7.6), 1 mM TCEP, 0.005% BSG, and 0.002% Tween 20, prepared on the day of use. Compounds in 100% DMSO (1 ul) were spotted into a polypropylene 384-well V-bottom plates (Greiner) using a Platemate Plus outfitted with a 384-channel head (Thermo Scientific). DMSO (1 ul) was added to Columns 11, 12, 23, 24, rows A-H for the maximum signal control and 1 ul of SAH, a known product and inhibitor of PRMT8, was added to columns 11, 12, 23, 24, rows I-P for the minimum signal control. A cocktail (40 ul) containing the PRMT8 enzyme was added by Multidrop Combi (Thermo-Fisher). The compounds were allowed to incubate with PRMT8 for 30 min at room temperature, then a cocktail (10 ul) containing ^3H-SAM and peptide was added to initiate the reaction (final volume=51 ul). The final concentrations of the components were as follows: PRMT8 was 1.5 nM, ^3H-SAM was 50 nM, non-radiolabeled SAM was 550 nM, peptide was 150 nM, SAH in the minimum signal control wells was 1 mM, and the DMSO concentration was 2%. The assays were stopped by the addition of non-radiolabeled SAM (10 ul) to a final concentration of 400 uM, which dilutes the ^3H-SAM to a level where its incorporation into the peptide substrate is no longer detectable. 50 ul of the reaction in the 384-well polypropylene plate was then transferred to a 384-well Flashplate and the biotinylated peptides were allowed to bind to the streptavidin surface for at least 1 hour before being washed once with 0.1% Tween20 in a Biotek ELx405 plate washer. The plates were then read in a PerkinElmer TopCount plate reader to measure the quantity of ^3H-labeled peptide bound to the Flashplate surface, measured as disintegrations per minute (dpm) or alternatively, referred to as counts per minute (cpm).
as §1, §2

Setting [1] is: Table 2, biochemical evaluation, read-out: PRMT6 IC50 (class).
The mark [2] stands for this setting: Table 2a, numerical, single experiment or average of multiple experiments, read-out: PRMT6 IC50.
Setting [3] is: Table 2, biochemical evaluation, read-out: PRMT8 IC50 (class).
The mark [4] stands for this setting: Table 2a, numerical, single experiment or average of multiple experiments, read-out: PRMT8 IC50.

T1 sequence (Q96LA8 with tags, fused parts or gaps): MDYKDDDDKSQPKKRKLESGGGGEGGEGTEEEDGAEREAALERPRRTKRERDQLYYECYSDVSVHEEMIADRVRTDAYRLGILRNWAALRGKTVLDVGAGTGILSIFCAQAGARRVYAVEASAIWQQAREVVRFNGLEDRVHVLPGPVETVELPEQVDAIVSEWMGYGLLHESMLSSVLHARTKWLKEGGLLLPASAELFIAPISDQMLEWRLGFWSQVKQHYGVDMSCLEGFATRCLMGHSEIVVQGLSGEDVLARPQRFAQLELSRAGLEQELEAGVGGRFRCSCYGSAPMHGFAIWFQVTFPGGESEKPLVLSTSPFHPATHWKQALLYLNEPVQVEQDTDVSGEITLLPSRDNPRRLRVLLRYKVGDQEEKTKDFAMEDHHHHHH

The IC50 is the concentration at which inhibition is half-maximal. Regarding `CN(CCN)Cc1ncoc1-c1ccc(C#N)cc1` [Compound 1, 4-(4-(((2-aminoethyl)(methyl)amino)methyl)oxazol-5-yl)benzonitrile], the IC50 on PRMT6 (setting [1]) is 101 to 1000 nM; at PRMT6 (setting [2]) it was 350 nM; on PRMT8 (setting [3]), 3010 to 10000 nM; at PRMT8 (setting [4]), 1870 nM.

On to `CN(CCN)Cc1ccnn1-c1ccc(C#N)cc1` [Compound 2, 4-(5-(((2-aminoethyl)(methyl)amino)methyl)-1H-pyrazol-1-yl)benzonitrile], for which the concentration for half-maximal inhibition (IC50) on PRMT6 (setting [1]) is under 100 nM; at PRMT6 (setting [2]), 98.7 nM; on PRMT8 (setting [3]) it was 1010 to 3000 nM; on PRMT8 (setting [4]), 1300 nM.

Turning to `CN(CCN)Cc1n[nH]nc1-c1ccc(C#N)cc1` [Compound 3, 4-(5-(((2-aminoethyl)(methyl)amino)methyl)-2H-1,2,3-triazol-4-yl)benzonitrile], the IC50 was under 100 nM on PRMT6 (setting [1]), 70.3 nM on PRMT6 (setting [2]), 1010 to 3000 nM on PRMT8 (setting [3]) and 1550 nM at PRMT8 (setting [4]).

Regarding `CN(CCN)Cc1ocnc1-c1ccc(C#N)cc1` [Compound 4, 4-(5-(((2-aminoethyl)(methyl)amino)methyl)oxazol-4-yl)benzonitrile], the IC50 was 101 to 1000 nM on PRMT6 (setting [1]), 168 nM at PRMT6 (setting [2]), 101 to 1000 nM at PRMT8 (setting [3]) and 509 nM on PRMT8 (setting [4]).

As to `CN(CCN)Cc1cnnn1-c1ccc(C#N)cc1` [Compound 5, 4-(5-(((2-aminoethyl)(methyl)amino)methyl)-1H-1,2,3-triazol-1-yl)benzonitrile], the half-inhibitory concentration (IC50) on PRMT6 (setting [1]) and on PRMT6 (setting [2]) was over 10000 nM each time.

In the case of `CN(CCN)Cc1cncn1-c1ccc(C#N)cc1` [Compound 6, 4-(5-(((2-aminoethyl)(methyl)amino)methyl)-1H-imidazol-1-yl)benzonitrile], the concentration for half-maximal inhibition (IC50) is 1010 to 3000 nM on PRMT6 (setting [1]), 1090 nM at PRMT6 (setting [2]), 3010 to 10000 nM on PRMT8 (setting [3]) and 8210 nM at PRMT8 (setting [4]).

Take `CN(CCN)Cc1nsnc1-c1ccc(C#N)cc1` [Compound 7, 4-(4-(((2-aminoethyl)(methyl)amino)methyl)-1,2,5-thiadiazol-3-yl)benzonitrile]: the IC50 was 101 to 1000 nM at PRMT6 (setting [1]), 112 nM at PRMT6 (setting [2]), 101 to 1000 nM on PRMT8 (setting [3]) and 445 nM on PRMT8 (setting [4]).

Take `CC(C)Oc1ccc(-n2nccc2CN(C)CCN)cc1` [Compound 8, N^1-((1-(4-isopropoxyphenyl)-1H-pyrazol-5-yl)methyl)-N^1-methylethane-1,2-diamine]: the IC50 is under 100 nM on PRMT6 (setting [1]), 46.4 nM on PRMT6 (setting [2]), under 100 nM on PRMT8 (setting [3]) and 89.7 nM at PRMT8 (setting [4]).

Consider `CN(CCN)Cc1ccnn1-c1ccc(Oc2ccccc2)cc1` [Compound 9], for which the IC50 at PRMT6 (setting [1]) was under 100 nM; on PRMT6 (setting [2]), 6.72 nM; at PRMT8 (setting [3]), under 100 nM; at PRMT8 (setting [4]), 71.8 nM.

On to `CN(CCN)Cc1[nH]cnc1-c1ccc(C#N)cc1` [Compound 10, 4-(5-(((2-aminoethyl)(methyl)amino)methyl)-1H-imidazol-4-yl)benzonitrile], for which the IC50 at PRMT6 (setting [1]) was 101 to 1000 nM; on PRMT6 (setting [2]), 168 nM; on PRMT8 (setting [3]), 3010 to 10000 nM; at PRMT8 (setting [4]), 3130 nM.

In the case of `CN(CCN)Cc1oncc1-c1ccc(F)cc1` [Compound 11, N^1-((4-(4-fluorophenyl)isoxazol-5-yl)methyl)-N^1-methylethane-1,2-diamine], the concentration for half-maximal inhibition (IC50) was 1010 to 3000 nM at PRMT6 (setting [1]), 2950 nM on PRMT6 (setting [2]), over 10000 nM at PRMT8 (setting [3]) and over 10000 nM at PRMT8 (setting [4]).
